Here are results for two molecules from article PMC3516848 (Journal of medicinal chemistry, 2011).

The experiment deals with T1, recombinant PfA-M1 (Plasmodium falciparum, UniProt O96935).
T1 sequence (O96935 1-1085): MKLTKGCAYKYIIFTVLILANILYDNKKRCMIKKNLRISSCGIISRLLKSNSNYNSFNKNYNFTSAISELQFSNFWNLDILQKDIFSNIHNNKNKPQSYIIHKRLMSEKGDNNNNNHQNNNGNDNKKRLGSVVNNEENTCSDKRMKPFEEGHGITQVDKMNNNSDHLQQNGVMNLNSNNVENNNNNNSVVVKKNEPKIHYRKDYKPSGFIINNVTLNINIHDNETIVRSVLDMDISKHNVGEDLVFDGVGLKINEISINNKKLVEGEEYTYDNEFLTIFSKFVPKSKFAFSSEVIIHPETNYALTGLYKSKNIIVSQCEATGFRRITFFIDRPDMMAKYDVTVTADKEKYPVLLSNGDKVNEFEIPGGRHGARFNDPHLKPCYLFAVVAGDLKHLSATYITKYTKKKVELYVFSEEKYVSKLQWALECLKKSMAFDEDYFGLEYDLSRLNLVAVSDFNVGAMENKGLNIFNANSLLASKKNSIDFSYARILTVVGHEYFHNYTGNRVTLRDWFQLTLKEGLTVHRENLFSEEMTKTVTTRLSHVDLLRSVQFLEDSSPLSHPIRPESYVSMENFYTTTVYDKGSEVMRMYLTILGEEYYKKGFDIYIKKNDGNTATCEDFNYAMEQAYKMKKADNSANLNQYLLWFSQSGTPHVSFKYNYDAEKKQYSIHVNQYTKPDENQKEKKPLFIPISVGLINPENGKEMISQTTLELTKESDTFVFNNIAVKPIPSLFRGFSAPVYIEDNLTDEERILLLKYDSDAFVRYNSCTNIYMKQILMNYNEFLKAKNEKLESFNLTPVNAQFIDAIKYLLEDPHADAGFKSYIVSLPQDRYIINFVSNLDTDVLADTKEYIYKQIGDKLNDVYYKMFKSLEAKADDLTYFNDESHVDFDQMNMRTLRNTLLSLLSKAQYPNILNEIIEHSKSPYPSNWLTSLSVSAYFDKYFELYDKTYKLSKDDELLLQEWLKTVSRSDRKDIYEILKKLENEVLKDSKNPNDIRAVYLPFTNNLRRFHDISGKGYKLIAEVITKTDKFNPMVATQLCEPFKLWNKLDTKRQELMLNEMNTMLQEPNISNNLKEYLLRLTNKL
Format: biochemical. The settings on record: read-out: Ki (nM) PfA-M1; P1' derivatives; assays at 8 inhibitor concentrations spanning 0.3 30 μM.

Molecules are shown by their SMILES. Some results are limits rather than exact numbers.

Broadly, the Ki is a dissociation constant, usually derived from enzyme kinetics or from competition with a known ligand. Regarding `N[C@H](Cc1ccccc1)[C@H](O)C(=O)N[C@@H](Cc1ccc2ccccc2c1)C(=O)O` [compound 5, PheNaphOH], the Ki is over 30000 nM.
Regarding `N[C@H](Cc1ccccc1)[C@H](O)C(=O)N[C@@H](Cc1ccc(-c2ccccc2)cc1)C(=O)O` [compound 6, PheBipOH], the Ki was over 30000 nM.
